Experimental data from patent US12208085B2, “Pyrazoline-derived compound for use in the prevention and/or treatment of pain and inflammation associated to surgery in mammals” (ECUPHAR NV, priority 2022, dated 2025).

How the values were obtained:
Format in all cases: in vivo
[1] = tested on: dogs undergoing experimental orthopaedic surgery; test: Postoperative pain after experimental knee surgery (Maquet Modified Procedure), SFGCPS scoring; details: Beagle dogs
Experimental: The study was performed with 6 clinically healthy Beagle dogs with similar age and weight that were experimentally subjected to knee surgery (repair of cranial cruciate ligament rupture). […] All surgeries were conducted under the same preoperative, intraoperative and postoperative protocols and performed by the same surgeon. A highly standardized surgical technique, Maquet Modified Procedure (MMP) (12) was implemented.
For each dog the study lasted 17 days, including a 7-day acclimatization period. On day D−1 (approximately 24 h before the intervention) the five dogs in the TG received a single oral dose (8 mg/kg) of the TP, the one dog in the CG received a single subcutaneous dose (0.1 mg/kg) of the RP. […] On day D0 all dogs underwent knee surgery in the right knee. From day D1 up to day D10 dogs were closely examined and signs of pain and discomfort were blindly evaluated and rated using the Short Form of the Glasgow Composite Pain Scale (SFGCPS) ranging from 0 to 24 (13 and http://www.newmetrica.com/cmps/). On day D−1 dogs were also examined to rule out signs of pain or discomfort.

[2] = tested on: dogs undergoing soft tissue surgery; test: Pilot field trial, postoperative pain and inflammation after elective soft tissue surgery (SFGCMPS, VAS), Placebo control; parameters: SFGCMPS Mobility average value / SFGCMPS Demeanour average value / SFGCMPS Posture/Activity average value / Total SFGCMPS average value / SFGCMPS Vocalization average value / SFGCMPS Attention to wound average value: scale not given here
Excerpt: The study was a single centre, prospective, parallel-controlled, randomized and blinded pilot field trial with a negative (Placebo) control to evaluate the efficacy of E-6087 in dogs undergoing elective soft tissue surgery.
Twenty dogs (17 females and 3 males) were included in the study. Dogs were of different breeds or crossbreed, ages from 3 months to 7 years and weights from 4 to 34 kg. All dogs were clinically healthy other than the condition causing the animal to go under surgery.
Two days before surgery animals were weighed, a detailed physical examination was performed, and blood samples were collected for routine haematology and biochemistry to confirm the good health status of the animals before inclusion.
Dogs were randomly allocated to receive either E-6087 or Placebo as oral tablets. E-6087 and Placebo tablets were similar (same appearance and packaging), therefore treatment administration, clinical examinations and blood sample analysis was always blind.
E-6087 was administered at the dose of 8 mg/kg on day D−1, approximately 24 h before surgery scheduled time, before the first meal of the day. Placebo tablets were administered following the same posology.
Surgeries were performed in the morning, on day D0 by the Investigator (Surgeon). All surgeries were performed under the same anaesthesia protocol. Premedication was performed with medetomidine and morphine both at 0.1 ml/10 kg followed by anaesthesia maintained with Tiletamine/Zolazepam (Zoletil®). Local anaesthesia was not permitted. At the end of surgery, antibiotic therapy was administered to all dogs following the post-operative protocol stablished: amoxicillin (trihydrate) at 15 mg of amoxicillin/kg bw in a single dose.
Clinical assessments of postoperative pain and inflammation were done by the Investigator (Examining Veterinarian) using the SFGCMPS (13). Visual Analog Scales (VAS) were also used to assess pain at rest and under palpation as well as the level of inflammation.
On D0 at approximately 2 hours before surgery the Examining Veterinarian performed a physical examination and the clinical assessment of pain and inflammation to determine the basal scores. After surgery pain and inflammation were assessed at six examination time points: t1.5 h, t3 h, t5 h (±30 minutes), t8 h (±1 hour), t24 h and t168 (D7), when t0 h corresponded to the end of surgery (extubation).
Clinical assessment of pain and inflammation included assessments of vocalization, attention to wound area, mobility, reaction to pressure at the wound area, general behaviour as well as activity and posture as per SFGCMPS. In addition, pain at rest and after palpation as well as the level of inflammation were assessed at the same time points by VAS ranging from 0 (no pain) to 100 (severe pain manifested by vocalization, aggression, and refusal to allow examination) and from 0 (no inflammation) to 100 (major inflammation as local heat, redness or paresis of the affected area).
Statistical Analysis was performed by use of commercially available software (SigmaPlot for Windows version 13.0). The area under the curve (AUC) was calculated for observable pain during the initial 8 and 24 hours, and it was considered as the primary efficacy variable. All analyses applied a two-sided significance level α=0.05 and a power β=80%. Demographic and baseline data were compared using the Mann-Whitney U test. Gender was compared with the Fisher exact probability test in contingency tables. Efficacy variables were analysed by repeated measures ANOVA.
The foremost surgical procedure was ovariohysterectomy, and this determined that most included animals were females. Sixteen females were ovariohysterectomized. Two males were castrated by cryptorchidectomy. […] All surgeries lasted less than 30 minutes except for one that lasted 54 minutes (perineal hernia).

[3] = tested on: dogs undergoing orthopaedic surgery; test: Non-inferiority field study, postoperative pain and inflammation after orthopaedic surgery (SFGCMPS, VAS), meloxicam control
Excerpt: The study was a non-inferiority, multicentre, prospective, parallel-controlled, randomized and blinded field study.
Thirty-two dogs of different breed, age and weight presenting at the veterinary practice for orthopaedic surgery were included.
Agents with analgesic effect were permitted as premedication. However, intraoperative or postoperative analgesia were not permitted.
For each dog the study lasted twelve days. Two days before surgery, all animals were weighed and underwent a thorough physical examination with clinical pathology to confirm the good health status of the animals before inclusion. Day 0 (D0) was the day dogs underwent surgery and t0 h corresponded to the end of surgery (extubation). The physical examination was repeated on D0, before surgery (t−2 h) and before dispatch (t8 h) and again at t24 h (D1) and t168 (D7) post-surgery. Clinical assessments of pain and inflammation were blindly performed on D0, before surgery (t−2 h) and again at t1.5 h, t3 h, t5 h, t8 h, t24 h (D1) and t168 h (D7) post-surgery. The global efficacy of treatments was assessed on D7. From day D1 to day D7 post-surgery, the owners assessed the dog's wellbeing.
The primary endpoint for efficacy comprises the sum of scores for the SFGCMPS scale, which was assessed at different time points by the Investigator.
From day D1 to D7, owners daily assessed the dogs' wellbeing using scales for: • Demeanour (0=normal; 1=slightly modified; 2=moderately modified; 3=markedly modified and 4=severely modified). • Mobility (0=normal; 1=slightly impaired; 2=moderately impaired; 3=markedly impaired and 4=severely impaired). • Quality of analgesia as very satisfactory (=1); satisfactory (=2); not very satisfactory (=3); not at all satisfactory (=4).
Blood samples were collected from all animals before inclusion (≤D−2), for routine pre-surgery blood profile. Potential adverse effects related to the products were also recorded.
Statistical Analysis was performed by use of commercially available software. All analyses used a two-sided significance level α=0.05. […]

[4] = 8 mg/kg oral D-1, 1.5 h after surgery
[5] = 8 mg/kg oral D-1, 3 h after surgery
[6] = 8 mg/kg oral D-1, 5 h after surgery
[7] = 8 mg/kg oral D-1, 8 h after surgery
[8] = 8 mg/kg oral D-1, 24 h after surgery

Structure (SMILES): NS(=O)(=O)c1ccc(N2N=C(C(F)(F)F)CC2c2ccc(F)cc2F)cc1 (stereo not shown) [E-6087, enflicoxib]
- potential adverse effects related to product administration ([1]; single oral dose 8 mg/kg on D-1): No potential adverse effects
- need of rescue analgesia ([1]; single oral dose 8 mg/kg on D-1, 10 days follow up): None of the animals needed rescue analgesia
- analgesic efficacy in the postoperative period after orthopaedic surgery ([1]; single oral dose 8 mg/kg on D-1, knee surgery D0): effective as analgesic agent
- SFGCMPS Attention to wound average value [2, 4]: 0
- SFGCMPS Demeanour average value [2, 4]: 0.83
- SFGCMPS Mobility average value [2, 4]: 0.33
- SFGCMPS Posture/Activity average value [2, 4]: 0.17
- SFGCMPS Pressure on wound average value [2, 4]: 0.33
- SFGCMPS Vocalization average value [2, 4]: 0.25
- Total SFGCMPS average value [2, 4]: 1.92
- SFGCMPS Attention to wound average value [2, 5]: 0.08
- SFGCMPS Demeanour average value [2, 5]: 0.50
- SFGCMPS Mobility average value [2, 5]: 0
- SFGCMPS Posture/Activity average value [2, 5]: 0.08
- SFGCMPS Pressure on wound average value [2, 5]: 0.42
- SFGCMPS Vocalization average value [2, 5]: 0.25
- Total SFGCMPS average value [2, 5]: 1.33
- level of inflammation (VAS), compared with Placebo ([2]; 8 mg/kg oral D-1, 3 hours after surgery, p=0.021, Placebo greater): statistically significant differences
- SFGCMPS Attention to wound average value [2, 6]: 0.08
- SFGCMPS Demeanour average value [2, 6]: 0.17
- SFGCMPS Mobility average value [2, 6]: 0
- SFGCMPS Posture/Activity average value [2, 6]: 0
- SFGCMPS Pressure on wound average value [2, 6]: 0.50
- SFGCMPS Vocalization average value [2, 6]: 0
- Total SFGCMPS average value [2, 6]: 0.75
- SFGCMPS Attention to wound average value [2, 7]: 0
- SFGCMPS Demeanour average value [2, 7]: 0
- SFGCMPS Mobility average value [2, 7]: 0
- SFGCMPS Posture/Activity average value [2, 7]: 0
- SFGCMPS Pressure on wound average value [2, 7]: 0.67
- SFGCMPS Vocalization average value [2, 7]: 0
- Total SFGCMPS average value [2, 7]: 0.50
- SFGCMPS Attention to wound average value [2, 8]: 0
- SFGCMPS Demeanour average value [2, 8]: 0
- SFGCMPS Mobility average value [2, 8]: 0
- SFGCMPS Posture/Activity average value [2, 8]: 0
- SFGCMPS Pressure on wound average value [2, 8]: 0.50
- SFGCMPS Vocalization average value [2, 8]: 0
- Total SFGCMPS average value [2, 8]: 0.50
- AUC (primary efficacy variable) for the first 24 hours after surgery, compared with Placebo ([2]; 8 mg/kg oral D-1, difference not statistically significant (p=0.266)): almost half
- SFGCMPS AUC0→8 h ([2]; 8 mg/kg oral D-1, first 8 hours after surgery): 8.0 ± 5.0
- SFGCMPS AUC0→24 h ([2]; 8 mg/kg oral D-1, first 24 hours after surgery): 16.0 ± 15
- AUC for the first 8 hours, compared with Placebo ([2]; 8 mg/kg oral D-1, p=0.033): statistically significant lower values
- Total scores for SFGCMPS at each time point, compared with Placebo ([2]; 8 mg/kg oral D-1, significant only at 1.5, 3 and 5 hours): always lower
- adverse events ([2]; 8 mg/kg oral D-1, whole study): No adverse events were observed
- alleviation of pain and inflammation after soft tissue surgery (conclusion) ([2]; single dose of 8 mg/kg): effective in alleviating pain and inflammation
- level of inflammation (VAS), compared with meloxicam ([3]; 8 mg/kg oral D-1, 3 h after surgery, p=0.025): lower values
- assessment of global efficacy, compared with meloxicam ([3]; 8 mg/kg oral D-1, D7, p=0.7879): No differences were detected
- SFGCMPS (AUC), primary efficacy variable, average value ([3]; initial 24 hours after orthopaedic surgery, E-6087 8 mg/kg oral D-1, meloxicam 0.2 mg/kg D0 then 0.1 mg/kg daily to D7): 95.50±57.70
